In patent US20110044936A1, “Composition for Attracting Bed Bugs” (priority 2009, published 2011):

Tests used:
Format in all cases: in vivo
[1] = test system: bed bugs (Cimex lectularius); experiment: Test arena gas assay, compounds dissolved in nonane (Example 5); conditions: for % Bed bugs in Experimental Zone: after two hour exposure, released from nonane solution at 150.0-184.8 nanograms/hour @ 100 mL/min air flow, test gas 21-22 °C, control gas compressed air; for Attraction of bed bugs to gaseous mixture: test arena, two hour exposure, versus control gas
From the text: A test arena was constructed from a 60×40×22 cm (L:W:H) polystyrene container. A 60×40 cm piece of filter paper was glued on the bottom to provide a walking surface for the bed bugs. At one end of the test arena, a triangular piece of plastic (16 cm high×25 cm long) was glued to the middle of the side and bottom of the container to create test zones of equal area on either side of the partition. On each side of this partition a piece of Tygon® tubing was inserted through a hole 7 cm above the bottom of each test zone to deliver a control gas to one side of the partition (control zone) and the experimental gas to the other side of the partition (experimental zone). The tubing was positioned to deliver the gases downward into the test zones with each outlet 6 cm above the filter paper glued to the bottom of the container. At the other end of the test arena, a 4 W night light was placed 35 cm above the bottom of the arena and regulated to a 12 hour light:12 hour dark (7 AM On: 7 PM Off) light cycle. Also placed adjacent to the night light was a small fan (Boston, cat#EHSDF) to create a gentle removal of gases from the distal part of the arena. Air released by the experimental and control gases was contained within their partitions and were gently drawn away from the respective air inputs, mixed within the arena and removed by the fan. This created a laminar flow where the bed bugs had opportunity to select either the experimental or control gas. Fifty bed bugs (Cimex lectularius) were entrapped within an inverted 90 mm Petri dish at a position furthest from the control and experimental zones until bed bugs were quiescent. Removal of the Petri dish started the experiment and readings were taken every hour for two hours. Data collected were number of bed bugs in the experimental, control and free arena zones. In addition, gas temperature, relative humidity, air flow rate, and percent CO2 data were collected. The experimental gas was considered to be an attractant if more bed bugs were in the experimental zone than in the control zone.
Determination of Bed Bug Aggregation Effect Using Hexenal, Butyric Acid, trans-2-Hexen-1-al Diethylacetal, Trimethylsilyl Butyrate or Methyl Butyrate Dissolved in an Alkane Solvent Using the test arena and methods described in Example 4, test treatments containing about 300 ppm of a pro-aldehyde compound, trans-2-hexen-1-al diethylacetal, dissolved in nonane, about 300 ppm of Hexenal dissolved in nonane, about 200 ppm of butyric acid dissolved in nonane and about 200 ppm of a pro-organic acid compound, trimethylsilyl butyrate or methyl butyrate, dissolved in nonane were prepared. Separate 100 micro liter pipettes (Drummond Wiretrol 100 μL) were filled with the test solutions. One end of each micro liter pipette was sealed with parafilm leaving one end of each open. […] An air tight lid was placed onto the plastic container and the container was installed in-line after humidity and temperature conditioning of the gas and before the gas entered the arena. The micro liter pipettes were weighed before and after use to determine the amount of the test compounds released. The control gas used for these experiments consisted of house compressed air.

[2] = test system: bed bugs (Cimex lectularius); experiment: Bed bug aggregation (attraction) assay, Petri dish arena with treated and control filter paper tents (Example 1)
Procedure: Attraction Assays: Assay arenas were made from 150×15 mm plastic Petri dishes (VWR#25384-326) containing a 125 mm piece off qualitative filter paper (VWR#28320-100) glued to the bottom using 3M Super 77® multipurpose spray adhesive. A 80 mm hole was cut into the lid and a 500 um mesh Nytex® screen (Bioquip, #7293B) was glued to cover the opening using quick epoxy. Fresh bottom dishes were used in each assay. For these experiments 2.4 cm filter paper folded to create a tent were treated with either a control treatment (10 microliters of silicone oil for aldehyde controls and 5 microliters of deionized water for acid controls) or 10 microliters of the experimental test treatment diluted in silicone oil (aldehydes) or 5 microliters of the experimental chemical diluted in deionized water (acids). Ten bed bugs per test were released into the assay arena for the aldehyde test treatments and controls, five bed bugs per test were released into the assay arena for the acid test treatments. Day cycling bed bugs (Cimex lectularius), 12 hour light: 12 hour dark (7 AM On: 7 PM Off) light cycle, were incubated and evaluated under normal room lighting conditions at room temperature. Readings were taken at 1 hour intervals from the release of bed bugs for 4 hours for aldehydes and one hour for acids, due to the quick volatility of the acids. The number of bed bugs under the control filter paper disk and the number of bed bugs under the test treatment filter paper disk were recorded. The test treatment was considered to be an attractant if the number of bed bugs under the experimental filter disk was greater than the number under the control filter disk. Table 1 below summarizes the experimental data, the experimental test treatments considered as attractants are in bold.

[3] = test system: bed bugs (Cimex lectularius); experiment: Bed bug aggregation assay, mixtures of Hexenal and Octenal (Example 2); conditions: about 30 ppm in silicone oil; for Number of bed bugs under experimental (Exp) disk: 5 microliters, ten bed bugs, average of two tests
Procedure: Attraction Assays: […] For this experiment, mixtures of Hexenal and Octenal were diluted in silicone oil at the following ratios: 100:0; 75:25; 50:50; 25:75; and 0:100. […] Readings were taken hourly for four hours from the release of bed bugs in the assay arena. The number of bed bugs under the control disk and the number of bed bugs under the experimental disk were recorded. The test treatment was considered to be an attractant if the number of bed bugs under the experimental filter disk was greater than the number under the control disk. Table 2 below summarizes the experimental data, the experimental test treatments considered as attractants are in bold.

[4] = 1 ppm in silicone oil, 10 microliters, 1 Hour, ten bed bugs, average of two tests
[5] = 1 ppm in silicone oil, 10 microliters, 2 Hour, ten bed bugs, average of two tests
[6] = 1 ppm in silicone oil, 10 microliters, 3 Hour, ten bed bugs, average of two tests
[7] = 1 ppm in silicone oil, 10 microliters, 4 Hour, ten bed bugs, average of two tests
[8] = 10 ppm in silicone oil, 10 microliters, 1 Hour, ten bed bugs, average of two tests
[9] = 10 ppm in silicone oil, 10 microliters, 2 Hour, ten bed bugs, average of two tests
[10] = 10 ppm in silicone oil, 10 microliters, 3 Hour, ten bed bugs, average of two tests
[11] = 10 ppm in silicone oil, 10 microliters, 4 Hour, ten bed bugs, average of two tests
[12] = 100 ppm in silicone oil, 10 microliters, 1 Hour, ten bed bugs, average of two tests
[13] = 100 ppm in silicone oil, 10 microliters, 2 Hour, ten bed bugs, average of two tests
[14] = 100 ppm in silicone oil, 10 microliters, 3 Hour, ten bed bugs, average of two tests
[15] = 100 ppm in silicone oil, 10 microliters, 4 Hour, ten bed bugs, average of two tests
[16] = 1000 ppm in silicone oil, 10 microliters, 1 Hour, ten bed bugs, average of two tests
[17] = 1000 ppm in silicone oil, 10 microliters, 2 Hour, ten bed bugs, average of two tests
[18] = 1000 ppm in silicone oil, 10 microliters, 3 Hour, ten bed bugs, average of two tests
[19] = 1000 ppm in silicone oil, 10 microliters, 4 Hour, ten bed bugs, average of two tests
[20] = 10000 ppm in silicone oil, 10 microliters, 1 Hour, ten bed bugs, one test
[21] = 10000 ppm in silicone oil, 10 microliters, 2 Hour, ten bed bugs, one test
[22] = 10000 ppm in silicone oil, 10 microliters, 3 Hour, ten bed bugs, one test
[23] = 10000 ppm in silicone oil, 10 microliters, 4 Hour, ten bed bugs, one test
[24] = at a high concentration of about 10,000 ppm
[25] = organic acid 10 ppm in deionized water, 5 microliters, one hour, five bed bugs, average of two tests
[26] = organic acid 50 ppm in deionized water, 5 microliters, one hour, five bed bugs, average of two tests
[27] = organic acid 100 ppm in deionized water, 5 microliters, one hour, five bed bugs, average of two tests
[28] = organic acid 1000 ppm in deionized water, 5 microliters, one hour, five bed bugs, average of two tests

SMILES: CCCC(=O)O[Si](C)(C)C [Trimethylsilyl butyrate, trimethylsilyl butyrate]
- % Bed bugs in Experimental Zone [1]: 9%
- Attraction of bed bugs to gaseous mixture [1]: attracted

SMILES: CCCCC/C=C/C=O [Octenal, trans-2-octen-1-al]
- Number of bed bugs under experimental (Exp) filter paper disk [2, 4]: 1
- Number of bed bugs under experimental (Exp) filter paper disk [2, 5]: 2
- Number of bed bugs under experimental (Exp) filter paper disk [2, 6]: 3.5
- Number of bed bugs under experimental (Exp) filter paper disk [2, 7]: 5
- Number of bed bugs under experimental (Exp) filter paper disk [2, 8]: 2
- Number of bed bugs under experimental (Exp) filter paper disk [2, 9]: 4
- Number of bed bugs under experimental (Exp) filter paper disk [2, 10]: 4.5
- Number of bed bugs under experimental (Exp) filter paper disk [2, 11]: 4
- Number of bed bugs under experimental (Exp) filter paper disk [2, 12]: 5
- Number of bed bugs under experimental (Exp) filter paper disk [2, 13]: 6.5
- Number of bed bugs under experimental (Exp) filter paper disk [2, 14]: 7
- Number of bed bugs under experimental (Exp) filter paper disk [2, 15]: 6.5
- Number of bed bugs under experimental (Exp) filter paper disk [2, 16]: 5
- Number of bed bugs under experimental (Exp) filter paper disk [2, 17]: 4.5
- Number of bed bugs under experimental (Exp) filter paper disk [2, 18]: 5
- Number of bed bugs under experimental (Exp) filter paper disk [2, 19]: 5
- Number of bed bugs under experimental (Exp) filter paper disk [2, 20]: 2
- Number of bed bugs under experimental (Exp) filter paper disk [2, 21]: 2
- Number of bed bugs under experimental (Exp) filter paper disk [2, 22]: 2
- Number of bed bugs under experimental (Exp) filter paper disk [2, 23]: 4
- Attractiveness to bed bugs [2, 24]: much less attractive
- Attractiveness to bed bugs ([2]; at concentrations below about 100 ppm): less attractive
- Number of bed bugs under experimental (Exp) disk ([3]; 1 Hour): 7.5
- Number of bed bugs under experimental (Exp) disk ([3]; 2 Hour): 7.5
- Number of bed bugs under experimental (Exp) disk ([3]; 3 Hour): 9
- Number of bed bugs under experimental (Exp) disk ([3]; 4 Hours): 8.5
- Attraction of bed bugs to experimental filter disks ([3]; compared among H:O ratios): most bed bugs were attracted

SMILES: CCC/C=C/C=O [Hexenal, trans-2-hexen-1-al]
- Number of bed bugs under experimental (Exp) filter paper disk [2, 4]: 4
- Number of bed bugs under experimental (Exp) filter paper disk [2, 5]: 6
- Number of bed bugs under experimental (Exp) filter paper disk [2, 6]: 6.5
- Number of bed bugs under experimental (Exp) filter paper disk [2, 7]: 6
- Number of bed bugs under experimental (Exp) filter paper disk [2, 8]: 3
- Number of bed bugs under experimental (Exp) filter paper disk [2, 9]: 3.5
- Number of bed bugs under experimental (Exp) filter paper disk [2, 10]: 4
- Number of bed bugs under experimental (Exp) filter paper disk [2, 11]: 5.5
- Number of bed bugs under experimental (Exp) filter paper disk [2, 12]: 6.5
- Number of bed bugs under experimental (Exp) filter paper disk [2, 13]: 8
- Number of bed bugs under experimental (Exp) filter paper disk [2, 14]: 9
- Number of bed bugs under experimental (Exp) filter paper disk [2, 15]: 8.5
- Number of bed bugs under experimental (Exp) filter paper disk [2, 16]: 6
- Number of bed bugs under experimental (Exp) filter paper disk [2, 17]: 7
- Number of bed bugs under experimental (Exp) filter paper disk [2, 18]: 9
- Number of bed bugs under experimental (Exp) filter paper disk [2, 19]: 9
- Number of bed bugs under experimental (Exp) filter paper disk [2, 20]: 0
- Number of bed bugs under experimental (Exp) filter paper disk [2, 21]: 1
- Number of bed bugs under experimental (Exp) filter paper disk [2, 22]: 1
- Number of bed bugs under experimental (Exp) filter paper disk [2, 23]: 1
- Attractiveness to bed bugs [2, 24]: much less attractive
- Number of bed bugs under experimental (Exp) disk ([3]; 1 Hour): 3
- Number of bed bugs under experimental (Exp) disk ([3]; 2 Hour): 3
- Number of bed bugs under experimental (Exp) disk ([3]; 3 Hour): 4.5
- Number of bed bugs under experimental (Exp) disk ([3]; 4 Hours): 5
- % Bed bugs in Experimental Zone [1]: 38.0%
- Attraction of bed bugs to gaseous mixture [1]: attracted

SMILES: CCCC(=O)OC [methyl butyrate]
- % Bed bugs in Experimental Zone [1]: 34.0%
- Attraction of bed bugs to gaseous mixture [1]: attracted

SMILES: CCC/C=C/C(OCC)OCC [trans-2-hexen-1-al diethylacetal]
- % Bed bugs in Experimental Zone [1]: 28.0%
- Attraction of bed bugs to gaseous mixture [1]: attracted

SMILES: O=CO [Formic acid, reference compound]
- Number of bed bugs under experimental (Exp) filter paper disk [2, 25]: 0
- Number of bed bugs under experimental (Exp) filter paper disk [2, 26]: 1
- Number of bed bugs under experimental (Exp) filter paper disk [2, 27]: 1
- Number of bed bugs under experimental (Exp) filter paper disk [2, 28]: 3

SMILES: CCCCC=O [Valeraldehyde, reference compound]
- Number of bed bugs under experimental (Exp) filter paper disk ([2]; 10 milligrams delivered in 10 microliters methanol solution, one experimental disk versus 6 methanol control disks, 1 Hour, average of two tests): 0.1
- Attractiveness to bed bugs ([2]; saturated aldehyde, 10 milligrams on disk, one hour): not attractive

SMILES: CC(=O)O [Acetic acid, reference compound]
- Number of bed bugs under experimental (Exp) filter paper disk [2, 25]: 0
- Number of bed bugs under experimental (Exp) filter paper disk [2, 26]: 1
- Number of bed bugs under experimental (Exp) filter paper disk [2, 27]: 1
- Number of bed bugs under experimental (Exp) filter paper disk [2, 28]: 3
- Number of bed bugs under experimental (Exp) filter paper disk ([2]; organic acid 10000 ppm in deionized water, 5 microliters, one hour, five bed bugs, average of two tests): 3
